In patent US6355799B1, “Substituted benzene compounds, process for their preparation, and herbicidal and defoliant compositions containing them” (ISK Americas Incorporated, priority 1997, dated 2002):

How the values were obtained:
Type in all cases: in vivo
[1] = tested on: large crabgrass (Digitaria sanguinalis, DIGSA); experiment: Pre-emerge test, greenhouse herbicide activity screening; settings: Digitaria sanguinalis, pre-emergence, 336 h, pre-emerge, phytotoxicity rating 0-100 at 14 days after application, read-out: Pre-emerge Herbicidal Activity DIGSA; for pest or weed control at 63 g/ha: rate 63 g ai/ha; for pest or weed control at 250 g/ha: rate 250 g ai/ha
How it was run: (§1)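 Plants grown in 10 cm pots of sandy loam mix received acetone-dissolved compounds through a moving flat-fan nozzle. Doses ranged from 15 to 1000 g ai/ha. Pre-emerge pots were seeded one day earlier, post-emerge pots 8–21 days earlier. Fourteen days on, each pot was graded 0–100 for damage.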

[2] = tested on: ivyleaf morningglory (Ipomoea hederacea, IPOHE); experiment: as above; settings: Ipomoea, pre-emergence, 336 h, pre-emerge, phytotoxicity rating 0-100 at 14 days after application, read-out: Pre-emerge Herbicidal Activity IPOHE; for pest or weed control at 63 g/ha: rate 63 g ai/ha; for pest or weed control at 250 g/ha: rate 250 g ai/ha
How it was run: as §1

[3] = tested on: lambsquarters (Chenopodium album, CHEAL); experiment: as above; settings: Chenopodium album, pre-emergence, 336 h, pre-emerge, phytotoxicity rating 0-100 at 14 days after application, read-out: Pre-emerge Herbicidal Activity CHEAL; for pest or weed control at 63 g/ha: rate 63 g ai/ha; for pest or weed control at 250 g/ha: rate 250 g ai/ha
How it was run: as §1

[4] = tested on: barnyardgrass (Echinochloa crus-galli, ECHCG); experiment: as above; settings: Echinochloa crus-galli, pre-emergence, 336 h, pre-emerge, phytotoxicity rating 0-100 at 14 days after application, read-out: Pre-emerge Herbicidal Activity ECHCG; for pest or weed control at 63 g/ha: rate 63 g ai/ha; for pest or weed control at 250 g/ha: rate 250 g ai/ha
How it was run: as §1

[5] = tested on: sicklepod (Cassia obtusifolia, CASOB); experiment: as above; settings: Senna obtusifolia, pre-emergence, 336 h, pre-emerge, phytotoxicity rating 0-100 at 14 days after application, read-out: Pre-emerge Herbicidal Activity CASOB; for pest or weed control at 63 g/ha: rate 63 g ai/ha; for pest or weed control at 250 g/ha: rate 250 g ai/ha
How it was run: as §1

[6] = tested on: velvetleaf (Abutilon theophrasti, ABUTH); experiment: as above; settings: Abutilon theophrasti, pre-emergence, 336 h, pre-emerge, phytotoxicity rating 0-100 at 14 days after application, read-out: Pre-emerge Herbicidal Activity ABUTH; for pest or weed control at 63 g/ha: rate 63 g ai/ha; for pest or weed control at 250 g/ha: rate 250 g ai/ha
How it was run: as §1

[7] = tested on: johnsongrass (Sorghum halepense, SORHA); experiment: as above; settings: Sorghum halepense, pre-emergence, 336 h, pre-emerge, phytotoxicity rating 0-100 at 14 days after application, read-out: Pre-emerge Herbicidal Activity SORHA
How it was run: as §1

[8] = tested on: green foxtail (Setaria viridis, SETVI); experiment: as above; settings: Setaria viridis, pre-emergence, 336 h, pre-emerge, phytotoxicity rating 0-100 at 14 days after application, read-out: Pre-emerge Herbicidal Activity SETVI; for pest or weed control at 63 g/ha: rate 63 g ai/ha; for pest or weed control at 250 g/ha: rate 250 g ai/ha
How it was run: as §1

[9] = tested on: ivyleaf morningglory (Ipomoea hederacea, IPOHE); experiment: Post-emerge test, greenhouse herbicide activity screening; settings: Ipomoea, post-emergence, 336 h, post-emerge, phytotoxicity rating 0-100 at 14 days after application, read-out: Post-emerge Herbicidal Activity IPOHE; for pest or weed control at 63 g/ha: 63 g ai/ha; for pest or weed control at 250 g/ha: 250 g ai/ha
How it was run: (§2)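 Visual ratings on a 0-100 scale (0 no damage, 100 all plants dead) were taken at 14 days after treatment. Rates of 15-1000 g ai/ha in acetone, 187 l/ha, were sprayed onto soil one day after planting (pre-emerge) or onto 2-3 leaf plants with 0.25% v/v surfactant (post-emerge).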

[10] = tested on: lambsquarters (Chenopodium album, CHEAL); experiment: as above; settings: Chenopodium album, post-emergence, 336 h, post-emerge, phytotoxicity rating 0-100 at 14 days after application, read-out: Post-emerge Herbicidal Activity CHEAL; for pest or weed control at 63 g/ha: 63 g ai/ha; for pest or weed control at 250 g/ha: 250 g ai/ha
How it was run: as §2

[11] = tested on: barnyardgrass (Echinochloa crus-galli, ECHCG); experiment: as above; settings: Echinochloa crus-galli, post-emergence, 336 h, post-emerge, phytotoxicity rating 0-100 at 14 days after application, read-out: Post-emerge Herbicidal Activity ECHCG; for pest or weed control at 63 g/ha: 63 g ai/ha; for pest or weed control at 250 g/ha: 250 g ai/ha
How it was run: as §2

[12] = tested on: sicklepod (Cassia obtusifolia, CASOB); experiment: as above; settings: Senna obtusifolia, post-emergence, 336 h, post-emerge, phytotoxicity rating 0-100 at 14 days after application, read-out: Post-emerge Herbicidal Activity CASOB; for pest or weed control at 63 g/ha: 63 g ai/ha; for pest or weed control at 250 g/ha: 250 g ai/ha
How it was run: as §2

[13] = tested on: velvetleaf (Abutilon theophrasti, ABUTH); experiment: as above; settings: Abutilon theophrasti, post-emergence, 336 h, post-emerge, phytotoxicity rating 0-100 at 14 days after application, read-out: Post-emerge Herbicidal Activity ABUTH; for pest or weed control at 63 g/ha: 63 g ai/ha; for pest or weed control at 250 g/ha: 250 g ai/ha
How it was run: as §2

[14] = tested on: green foxtail (Setaria viridis, SETVI); experiment: as above; settings: Setaria viridis, post-emergence, 336 h, post-emerge, phytotoxicity rating 0-100 at 14 days after application, read-out: Post-emerge Herbicidal Activity SETVI; for pest or weed control at 63 g/ha: 63 g ai/ha; for pest or weed control at 250 g/ha: 250 g ai/ha
How it was run: as §2

COc1c(Cl)cc(F)c(-n2nc(C)n(C(F)F)c2=O)c1NC(=O)c1ccc2ccccc2c1 [Compound 6-15]
pest or weed control at 63 g/ha [1]: 80%
pest or weed control at 250 g/ha [1]: 100%
pest or weed control at 63 g/ha [2]: 70%
pest or weed control at 250 g/ha [2]: 40%
pest or weed control at 63 g/ha [3]: 100%
pest or weed control at 250 g/ha [3]: 100%
pest or weed control at 63 g/ha [4]: 50%
pest or weed control at 250 g/ha [4]: 80%
pest or weed control at 63 g/ha [5]: 70%
pest or weed control at 250 g/ha [5]: 80%
pest or weed control at 63 g/ha [6]: 100%
pest or weed control at 250 g/ha [6]: 100%
pest or weed control at 63 g/ha ([7]; rate 63 g ai/ha): 50%
pest or weed control at 250 g/ha ([7]; rate 250 g ai/ha): 100%
pest or weed control at 63 g/ha [8]: 95%
pest or weed control at 250 g/ha [8]: 100%
pest or weed control at 63 g/ha [9]: 100%
pest or weed control at 250 g/ha [9]: 100%
pest or weed control at 63 g/ha [10]: 100%
pest or weed control at 250 g/ha [10]: 100%
pest or weed control at 63 g/ha [11]: 40%
pest or weed control at 250 g/ha [11]: 70%
pest or weed control at 63 g/ha [12]: 100%
pest or weed control at 250 g/ha [12]: 100%
pest or weed control at 63 g/ha [13]: 100%
pest or weed control at 250 g/ha [13]: 100%
pest or weed control at 63 g/ha [14]: 50%
pest or weed control at 250 g/ha [14]: 85%

Cc1nn(-c2c(Cl)cc(Cl)cc2NC(=O)c2ccc3ccccc3c2)c(=O)n1C(F)F [Compound 6-16]
pest or weed control at 63 g/ha [1]: 30%
pest or weed control at 250 g/ha [1]: 90%
pest or weed control at 63 g/ha [2]: 0%
pest or weed control at 250 g/ha [2]: 0%
pest or weed control at 63 g/ha [3]: 100%
pest or weed control at 250 g/ha [3]: 100%
pest or weed control at 63 g/ha [4]: 10%
pest or weed control at 250 g/ha [4]: 30%
pest or weed control at 63 g/ha [5]: 0%
pest or weed control at 250 g/ha [5]: 0%
pest or weed control at 63 g/ha [6]: 10%
pest or weed control at 250 g/ha [6]: 20%
pest or weed control at 63 g/ha [8]: 60%
pest or weed control at 250 g/ha [8]: 90%
pest or weed control at 63 g/ha [9]: 100%
pest or weed control at 250 g/ha [9]: 75%
pest or weed control at 63 g/ha [10]: 100%
pest or weed control at 250 g/ha [10]: 100%
pest or weed control at 63 g/ha [11]: 20%
pest or weed control at 250 g/ha [11]: 40%
pest or weed control at 63 g/ha [12]: 80%
pest or weed control at 250 g/ha [12]: 60%
pest or weed control at 63 g/ha [13]: 100%
pest or weed control at 250 g/ha [13]: 100%
pest or weed control at 63 g/ha [14]: 30%
pest or weed control at 250 g/ha [14]: 60%

COc1c(Cl)cc(Cl)c(-n2nc(C)n(C(F)F)c2=O)c1NC(=O)c1ccc2ccccc2c1 [Compound 6-17]
pest or weed control at 63 g/ha [1]: 30%
pest or weed control at 250 g/ha [1]: 99%
pest or weed control at 63 g/ha [2]: 0%
pest or weed control at 250 g/ha [2]: 30%
pest or weed control at 63 g/ha [3]: 100%
pest or weed control at 250 g/ha [3]: 100%
pest or weed control at 63 g/ha [4]: 10%
pest or weed control at 250 g/ha [4]: 90%
pest or weed control at 63 g/ha [5]: 0%
pest or weed control at 250 g/ha [5]: 20%
pest or weed control at 63 g/ha [6]: 30%
pest or weed control at 250 g/ha [6]: 95%
pest or weed control at 63 g/ha [8]: 70%
pest or weed control at 250 g/ha [8]: 99%
pest or weed control at 63 g/ha [9]: 50%
pest or weed control at 250 g/ha [9]: 70%
pest or weed control at 63 g/ha [10]: 90%
pest or weed control at 250 g/ha [10]: 90%
pest or weed control at 63 g/ha [11]: 0%
pest or weed control at 250 g/ha [11]: 30%
pest or weed control at 63 g/ha [12]: 50%
pest or weed control at 250 g/ha [12]: 70%
pest or weed control at 63 g/ha [13]: 90%
pest or weed control at 250 g/ha [13]: 100%
pest or weed control at 63 g/ha [14]: 0%
pest or weed control at 250 g/ha [14]: 30%

COc1c(Cl)cc(F)c(-c2nn(C)c(C(F)(F)F)c2Cl)c1NC(=O)c1ccc2ccccc2c1 [Compound 7-14]
pest or weed control at 63 g/ha [1]: 60%
pest or weed control at 250 g/ha [1]: 70%
pest or weed control at 63 g/ha [2]: 30%
pest or weed control at 250 g/ha [2]: 20%
pest or weed control at 63 g/ha [3]: 70%
pest or weed control at 250 g/ha [3]: 100%
pest or weed control at 63 g/ha [4]: 0%
pest or weed control at 250 g/ha [4]: 40%
pest or weed control at 63 g/ha [5]: 10%
pest or weed control at 250 g/ha [5]: 50%
pest or weed control at 63 g/ha [6]: 40%
pest or weed control at 250 g/ha [6]: 60%
pest or weed control at 63 g/ha [8]: 0%
pest or weed control at 250 g/ha [8]: 70%
pest or weed control at 250 g/ha [9]: 100%
pest or weed control at 250 g/ha [10]: 90%
pest or weed control at 250 g/ha [11]: 10%
pest or weed control at 250 g/ha [12]: 60%
pest or weed control at 250 g/ha [13]: 95%
pest or weed control at 250 g/ha [14]: 20%
